System: 188146-221-R-J1-PDC complex spheroid viability
Experiment: Anticancer human tumor 188146-221-R-J1-PDC patient-derived colon adenocarcinoma cell line growth inhibition [POLQ]
Settings: for IC50: curve of first compound; for viability, T/C: stronger effect = lower value
Procedure: Multicellular complex tumor spheroid response to Polymerase (POL) inhibitors (novobiocin, ART-558, RP6685) in combination with a variety of drugs and investigational agents in selected tumor cell lines
The POL inhibitors (novobiocin, ART-558, and RP6685) were evaluated both individually and in combination with standard of care and investigational anticancer small molecules within a complex spheroid model of solid tumors. . Complex spheroids include a stromal component modeled by human endothelial cells (HUVEC) and fibroblasts modeled by human mesenchymal stem cells (MSCs). The concentration ranges selected for each drug and investigational agent were based upon clinically achievable concentrations if the clinical Cmax of the agent was known.
Compounds. The drugs and investigational agents: novobiocin (NSC847541), ART-558 (NSC835418), RP-6685 (NSC848927), peposertib (NSC802822), ceralasertib (NSC780249), elimusertib (NSC800525), camonsertib (NSC841442), AZD-1390 (NSC803789), olaparib (NSC753686), talazoparib (NSC767125), rucaparib (NSC756644), sotorasib (NSC818433), MRTX-1133 (NSC836407), SN-38 (NSC673596), topotecan (NSC609699), epotoside (NSC141540), doxorubicin (NSC123127), gemcitabine (NSC613327), 5-fluorouracil (NSC19893), paclitaxel (NSC125973), vemurafenib (NSC761431), MSA-2 (NSC828583), SN-011 (NSC837082), adavosertib (NSC754352), prexasertib (NSC758257), carboplatin (NSC241240) and oxaliplatin (NSC266046), were obtained from the National Cancer Institute (NCI) Developmental Therapeutics Program Chemical Repository (21). The FDA-approved anticancer drug set is available from the Developmental Therapeutics Program at https://dtp.cancer.gov/organization/dscb/obtaining/. […] The stock solutions were prepared in dimethyl sulfoxide (DMSO, Sigma-Aldrich, St. Louis, MO, cat. D2650), except for the platinum compounds which were prepared in saline (Quality Biological, Gaithersburg, MD, cat. 114-055-101), at 800-fold the tested concentration and stored at -70 degrees C prior to their use. All drugs and investigational agents were tested over a range starting from a high concentration at or near the clinical Cmax and decreasing in half-log increments. If the clinical Cmax for an agent had not been determined, the highest concentration tested was 10 microM, except for SN-38, which was tested at a high concentration of 1 microM.
Cell Culture. All cells were maintained in an incubator at 37 degrees C and 5% CO2 with 95% humidity. The PDC lines were cultured according to standard operating procedures established by the NCI PDMR (https://pdmr.cancer.gov). Table 3 of the manuscript, lists the cell lines along with the number of the three cell types plated to form the mct-spheroids and media for tumor cell growth. After thawing, all PDC lines, except 997537-175-T-J1-PDC and 415267-285-R-J2-PDC, were cultured in Matrigel-coated flasks prepared with a working solution of 1X Ham's F-12 nutrient mix, without supplementation (Thermo Fisher Scientific, cat. 11765054), 100 U/mL penicillin-streptomycin (Thermo Fisher Scientific, cat. 15140122), and 2.5% Matrigel (Corning Inc., Corning, NY, cat. 354248) for the first three passages. The two PDC lines 997537-175-T-J1-PDC and 415267-285-R-J2-PDC were cultured on uncoated flasks. The 857933-349-R-J2-PDC line was cultured in 6C/Colon 1B media containing advanced DMEM/F-12 (Thermo Fisher Scientific, cat. 12634028), 10 mM HEPES (Thermo Fisher Scientific, cat. 15630080), 1X GlutaMAX supplement (Thermo Fisher Scientific, cat. 35050061), 0.1 mg/mL primocin (InvivoGen, San Diego, CA, cat. ant-pm-2), 10% defined fetal bovine serum, heat inactivated (HyClone Laboratories Inc., Logan, UT, cat. SH30070.03HI), 50% L-WRN conditioned media (ATCC, cat. CRL-3276), 1.25 mM N-Acetyl-L-cysteine (Sigma-Aldrich, cat. A9165), 10 mM nicotinamide (Sigma-Aldrich, cat. N0636), 1X B-27 supplement (Thermo Fisher Scientific, cat. 17504044), 1X N-2 supplement (Thermo Fisher Scientific, cat. […]

[1] = second compound 0.0316 µM, first compound 0.0316 µM
[2] = second compound 0.0316 µM, first compound 0.1 µM
[3] = second compound 0.0316 µM, first compound 0.316 µM
[4] = second compound 0.0316 µM, first compound 1 µM
[5] = second compound 0.1 µM, first compound 0.0316 µM
[6] = second compound 0.1 µM, first compound 0.1 µM
[7] = second compound 0.1 µM, first compound 0.316 µM
[8] = second compound 0.1 µM, first compound 1 µM
[9] = second compound 0.316 µM, first compound 0.0316 µM
[10] = second compound 0.316 µM, first compound 0.1 µM
[11] = second compound 0.316 µM, first compound 0.316 µM
[12] = second compound 0.316 µM, first compound 1 µM
[13] = second compound 1 µM, first compound 0.0316 µM
[14] = second compound 1 µM, first compound 0.1 µM
[15] = second compound 1 µM, first compound 0.316 µM
[16] = second compound 1 µM, first compound 1 µM
[17] = second compound 3.16 µM, first compound 0.0316 µM
[18] = second compound 3.16 µM, first compound 0.1 µM
[19] = second compound 3.16 µM, first compound 0.316 µM
[20] = second compound 3.16 µM, first compound 1 µM
[21] = second compound 10 µM, first compound 0.0316 µM
[22] = second compound 10 µM, first compound 0.1 µM
[23] = second compound 10 µM, first compound 0.316 µM
[24] = second compound 10 µM, first compound 1 µM
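Further: spheroids exposed to compounds for seven days.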
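Wherever viability, T/C is given: 100% = DMSO vehicle control viability.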

CCc1c2c(nc3ccc(O)cc13)-c1cc3c(c(=O)n1C2)COC(=O)[C@]3(O)CC + Cc1cccc(N(C)C(=O)C2C(O)CCN2c2nc(C)cc(C(F)(F)F)c2C#N)c1 showed an IC50 (second compound 0.0316 µM) of 18.7 nM, an IC50 (second compound 0.1 µM) of 24.7 nM and an IC50 (second compound 0.316 µM) of 24.3 nM. The IC50 (second compound 1 µM) was 23.8 nM, the IC50 (second compound 3.16 µM) was 22.1 nM and the IC50 (second compound 10 µM) was 16.8 nM. It also gave a viability, T/C (second compound 0.0316 µM, first compound 0.00316 µM) of 106%, a viability, T/C (second compound 0.0316 µM, first compound 0.01 µM) of 64.3% and a viability, T/C [1] of 39.6%. It also gave a viability, T/C [2] of 17.9%, a viability, T/C [3] of 11.2% and a viability, T/C [4] of 6.74%. It also gave a viability, T/C (second compound 0.1 µM, first compound 0.00316 µM) of 102%, a viability, T/C (second compound 0.1 µM, first compound 0.01 µM) of 81.4% and a viability, T/C [5] of 39.9%. For the same compound, the viability, T/C [6] was 19.9%, the viability, T/C [7] was 10.1% and the viability, T/C [8] was 8.21%. It also gave a viability, T/C (second compound 0.316 µM, first compound 0.00316 µM) of 99.1%, a viability, T/C (second compound 0.316 µM, first compound 0.01 µM) of 87.7% and a viability, T/C [9] of 38.2%. For the same compound, the viability, T/C [10] was 15.9%, the viability, T/C [11] was 11.5% and the viability, T/C [12] was 6.74%. It also gave a viability, T/C (second compound 1 µM, first compound 0.00316 µM) of 101%, a viability, T/C (second compound 1 µM, first compound 0.01 µM) of 78.2% and a viability, T/C [13] of 40.7%. It also gave a viability, T/C [14] of 17.3%, a viability, T/C [15] of 9.53% and a viability, T/C [16] of 8.73%. It also gave a viability, T/C (second compound 3.16 µM, first compound 0.00316 µM) of 86.1%, a viability, T/C (second compound 3.16 µM, first compound 0.01 µM) of 73.7% and a viability, T/C [17] of 39.1%. It also gave a viability, T/C [18] of 16.7%, a viability, T/C [19] of 13.6% and a viability, T/C [20] of 8.63%. It also gave a viability, T/C (second compound 10 µM, first compound 0.00316 µM) of 92.2%, a viability, T/C (second compound 10 µM, first compound 0.01 µM) of 65.1% and a viability, T/C [21] of 31.2%. It also gave a viability, T/C [22] of 17%, a viability, T/C [23] of 15.2% and a viability, T/C [24] of 9.83%.
With CCc1cc2c(N3CCc4c(cc(Cn5ccnc5)cc4-c4cn(C)nc4C(F)(F)F)C3=O)cc(C)nc2c(OC)n1 + Cc1cccc(N(C)C(=O)C2C(O)CCN2c2nc(C)cc(C(F)(F)F)c2C#N)c1 the IC50 (second compound 0.0316 µM) was 7640 nM, the IC50 (second compound 0.1 µM) was 6710 nM and the IC50 (second compound 0.316 µM) was 6910 nM. For the same compound, the IC50 (second compound 1 µM) was 7650 nM, the IC50 (second compound 3.16 µM) was 6580 nM and the IC50 (second compound 10 µM) was 5430 nM. It also gave a viability, T/C [1] of 105%, a viability, T/C [2] of 90.4% and a viability, T/C [3] of 87%. It also gave a viability, T/C [4] of 84.9%, a viability, T/C (second compound 0.0316 µM, first compound 3.16 µM) of 65.7% and a viability, T/C (second compound 0.0316 µM, first compound 10 µM) of 44.5%. For the same compound, the viability, T/C [5] was 95.9%, the viability, T/C [6] was 90.9% and the viability, T/C [7] was 96%. The viability, T/C [8] was 86.4%, the viability, T/C (second compound 0.1 µM, first compound 3.16 µM) was 68.4% and the viability, T/C (second compound 0.1 µM, first compound 10 µM) was 40.3%. For the same compound, the viability, T/C [9] was 112%, the viability, T/C [10] was 94% and the viability, T/C [11] was 106%. For the same compound, the viability, T/C [12] was 98.2%, the viability, T/C (second compound 0.316 µM, first compound 3.16 µM) was 67% and the viability, T/C (second compound 0.316 µM, first compound 10 µM) was 41.9%. The viability, T/C [13] was 93.8%, the viability, T/C [14] was 87.3% and the viability, T/C [15] was 107%. It also gave a viability, T/C [16] of 88.5%, a viability, T/C (second compound 1 µM, first compound 3.16 µM) of 72.9% and a viability, T/C (second compound 1 µM, first compound 10 µM) of 43.1%. The viability, T/C [17] was 101%, the viability, T/C [18] was 100% and the viability, T/C [19] was 94.4%. For the same compound, the viability, T/C [20] was 81.9%, the viability, T/C (second compound 3.16 µM, first compound 3.16 µM) was 65.3% and the viability, T/C (second compound 3.16 µM, first compound 10 µM) was 41.4%. The viability, T/C [21] was 97.2%, the viability, T/C [22] was 95.7% and the viability, T/C [23] was 96.7%. The viability, T/C [24] was 71.1%, the viability, T/C (second compound 10 µM, first compound 3.16 µM) was 64.9% and the viability, T/C (second compound 10 µM, first compound 10 µM) was 36.6%.

From PubChem BioAssay AID1963851 (Molecular Pharmacology Branch, DTP, NCI, 2024)
